In patent US20130040882A1, “USE OF FIBROBLAST GROWTH FACTOR FRAGMENTS” (NOVARTIS AG, priority 2003, published 2013):
“Also recorded” adds a separate entry of the source.

Assays:
[1] = test system: gene expression in organs; assay: Blind monkey trial of three peptides: gene expression profiling of organs on Affymetrix U95 chips; format: in vivo, cynomolgus monkeys; conditions: 100 μg/animal/day sc, two weeks
[2] = Blind monkey trial of three peptides: biochemistry, clinical chemistry screening and histopathology; format: in vivo, cynomolgus monkeys; conditions: 100 μg/animal/day sc, two weeks
Protocol: For the verification of the selected human proteins or peptides in cynomolgus monkeys, one control and four treated groups (i.e., each of three peptides and placebo) of two males and two females are treated for two weeks by daily administration of the proteins dissolved in autologous serum (e.g., in each animal's own serum) through the subcutaneous route. The administration of the peptides was blinded. The amount of peptide administered was 100 μg/animal/day (5-6 mg of peptide total).
Drug profiling in these non-human primates was analyzed using gene expression profiling of more than 100 organs on Affymetrix U95 chips (each containing ⅓ of the human genome). In addition, extensive biochemistry and clinical chemistry screening (>60 parameters) and histopathology (ca. 60 organs) were performed.

Substance: Peptide 2: gonadotrophin releasing hormone (QHWSYGLRPG; Gonadoliberin-1; UniProt P01148 24-33, looked up)
- Conclusions of the in vivo Profiling by the Data Mining Team: Function/Pathway [1]: Ovarian and testicular
- Findings by the Data Mining Team: Adrenals (gene with direction) [1]: Follistatin+; also recorded: IGF2+; also recorded: catecholamines synthesis+; also recorded: activin A−/inhibin+
- Findings by the Data Mining Team: Bone marrow (gene with direction) [1]: Macrophages+; also recorded: eosinophils+; also recorded: activin A−; also recorded: inhibin betaB+
- Findings by the Data Mining Team: Hypothalamus (gene with direction) [1]: Transthyretin+; also recorded: oxytocin
- Findings by the Data Mining Team: Kidney (gene with direction) [1]: Thiol protease inhibitor (aldosterone + in biochemistry), and +GAPDH and +STAT and +JAK and +TEGT
- Findings by the Data Mining Team: Liver (gene with direction) [1]: Activin A−; also recorded: inhibin betaB+; also recorded: lipid metabolism+; also recorded: glycolysis+; also recorded: follistatin+; also recorded: IDO1+; also recorded: VEGF−
- Findings by the Data Mining Team: Mammary gland [1]: Inconclusive; Sampling heterogenous
- Findings by the Data Mining Team: Ovary (gene with direction) [1]: Nuclear receptors−; also recorded: aromatase and estrogen synthase+; also recorded: activinA−; also recorded: inhibin beta B+
- Findings by the Data Mining Team: Testis (gene with direction) [1]: CREM+
- Findings by the Data Mining Team: Thymus (gene with direction) [1]: Integrin alpha6+; also recorded: VAP1+; also recorded: lipid metabolism; also recorded: binding protein+,
- Findings by the Data Mining Team: Thyroid (gene with direction) [1]: Ocludin+; also recorded: thyroid hormone binding protein+; also recorded: THR alpha−
- Findings by the Data Mining Team: Biochemistry/Histopathology/Haematology (parameter with direction) [2]: Slight increase in aldosterone
